{"source": "ChEMBL document CHEMBL4342523", "about": "“Discovery and Development of S6821 and S7958 as Potent TAS2R8 Antagonists” (J Med Chem, 2020)", "key": {"[1]": {"biological_target": "T1, Taste receptor type 2 member 8 (Homo sapiens) (UniProt Q9NYW2)", "T1 sequence (whole entry)": "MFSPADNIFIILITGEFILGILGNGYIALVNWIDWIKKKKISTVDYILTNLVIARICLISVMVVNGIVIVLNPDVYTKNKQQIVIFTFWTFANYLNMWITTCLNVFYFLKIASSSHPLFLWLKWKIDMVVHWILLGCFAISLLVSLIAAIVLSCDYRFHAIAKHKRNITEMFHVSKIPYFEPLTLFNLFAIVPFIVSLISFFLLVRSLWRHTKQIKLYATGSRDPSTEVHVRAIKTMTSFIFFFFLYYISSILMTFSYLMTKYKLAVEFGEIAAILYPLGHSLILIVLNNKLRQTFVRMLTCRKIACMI", "assay": "Competitive antagonist activity at recombinant human TAS2R8 assessed as inhibition of chloramphenicol-induced intracellular calcium level at 3 to 3000 nM preincubated for 60 secs followed by varying levels of chloramphenicol addition using Fura-2AM dye by cell-based fluorescent microscopic analysis"}, "[2]": {"assay": "Stability of the compound in pH 7.1 buffer assessed as parent compound remaining measured after 60 mins at 124 degC", "type": "physicochemical", "conditions": "read-out: Stability"}}, "note": "The source made the active and inactive calls. The calls are words filed in the database; no cut-off is given here."}
{"smiles": "Cc1noc(C)c1Cn1cc(N2C(=O)CN(Cc3cccc(O)c3)C2=O)cn1", "values": [{"measurement": "inhibition", "setting": "[1]", "value": "Active"}, {"measurement": "remaining at 1 h", "setting": "[2]", "value": 89, "unit": "%"}]}
